From article PMC12814364 (Journal of the American Chemical Society, 2025)
Read-outs that look alike come from different tables or passages of the source.

Experiments:
HBHA110–199 [1] = molecular target: T1, HBHA110–199 (Mycobacterium tuberculosis, UniProt P9WIP9); format: binding
full-length HBHA = molecular target: T2, full-length HBHA (Mycobacterium tuberculosis, UniProt P9WIP9); experiment: Far-UV circular dichroism of full-length HBHA with added sugar
T2 sequence (P9WIP9 1-199): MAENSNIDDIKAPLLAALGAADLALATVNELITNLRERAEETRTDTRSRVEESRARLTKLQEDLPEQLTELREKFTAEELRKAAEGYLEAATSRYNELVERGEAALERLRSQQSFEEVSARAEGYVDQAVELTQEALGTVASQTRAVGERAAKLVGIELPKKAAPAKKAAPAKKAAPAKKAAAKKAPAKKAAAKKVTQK

HBHA110–199 [2] = molecular target: T1, HBHA110–199; experiment: Circular dichroism of HBHA110–199 with added sugar; details: data not shown
HBHA110–199 [3] = molecular target: T1, HBHA110–199; experiment: ITC binding of HS hexadecasaccharides with HBHA110–199

Which results are given for `O=C(O)[C@@H]1O[C@@H](O[C@H]2[C@H](O)[C@@H](NS(=O)(=O)O)[C@@H](O[C@H]3[C@H](O)[C@@H](OS(=O)(=O)O)[C@H]4OC[C@@H]3O4)O[C@@H]2COS(=O)(=O)O)[C@H](OS(=O)(=O)O)[C@@H](O)[C@@H]1O[C@H]1O[C@H](COS(=O)(=O)O)[C@@H](O[C@@H]2O[C@@H](C(=O)O)[C@@H](O[C@H]3O[C@H](COS(=O)(=O)O)[C@@H](O[C@@H]4O[C@@H](C(=O)O)[C@@H](O[C@H]5O[C@H](COS(=O)(=O)O)[C@@H](O[C@@H]6O[C@@H](C(=O)O)[C@@H](O[C@H]7O[C@H](COS(=O)(=O)O)[C@@H](O[C@@H]8O[C@@H](C(=O)O)[C@@H](O[C@H]9O[C@H](COS(=O)(=O)O)[C@@H](O[C@@H]%10O[C@@H](C(=O)O)[C@@H](O[C@H]%11O[C@H](COS(=O)(=O)O)[C@@H](O[C@@H]%12O[C@@H](C(=O)O)[C@@H](O[C@H]%13O[C@H](COS(=O)(=O)O)[C@@H](O)[C@H](O)[C@H]%13NS(=O)(=O)O)[C@H](O)[C@H]%12OS(=O)(=O)O)[C@H](O)[C@H]%11NS(=O)(=O)O)[C@H](O)[C@H]%10OS(=O)(=O)O)[C@H](O)[C@H]9NS(=O)(=O)O)[C@H](O)[C@H]8OS(=O)(=O)O)[C@H](O)[C@H]7NS(=O)(=O)O)[C@H](O)[C@H]6OS(=O)(=O)O)[C@H](O)[C@H]5NS(=O)(=O)O)[C@H](O)[C@H]4OS(=O)(=O)O)[C@H](O)[C@H]3NS(=O)(=O)O)[C@H](O)[C@H]2OS(=O)(=O)O)[C@H](O)[C@H]1NS(=O)(=O)O` [compound 24]?
Kd (HBHA110–199 [1]; Average of Repeat I P(KKAA), residue 160-164, read-out: Dissociation constant from NMR cross-peak movement, average): 8700 nM; Kd (HBHA110–199 [1]; Average of Repeat II P(AKKAA), residue 165-170, read-out: Dissociation constant from NMR cross-peak movement, average): 3200 nM; Kd (HBHA110–199 [1]; Average of Repeat III P(AKKAA), residue 171-176, read-out: Dissociation constant from NMR cross-peak movement, average): 2900 nM; Kd (HBHA110–199 [1]; Average of Repeat IV P([…]), residue 177-186, read-out: Dissociation constant from NMR cross-peak movement, average): 1400 nM; Kd (HBHA110–199 [1]; Average of Repeat V P([…]), residue 187-196, read-out: Dissociation constant from NMR cross-peak movement, average): 1600 nM; Kd (HBHA110–199 [1]; from NMR cross-peak movement, read-out: average KD in the most perturbed region (residues 178–199)): 1500 nM; average Δδresidue (weighted chemical shift deviation) of HBHA110–199 (HBHA110–199 [1]; protein-to-sugar molar ratio 1:2, all residues): 0.035 ppm; Kd (HBHA110–199 [1]; residue A163, Repeat I, read-out: Dissociation constant from NMR cross-peak movement): 9500 nM; Kd (HBHA110–199 [1]; residue A164, Repeat I, read-out: Dissociation constant from NMR cross-peak movement): 5400 nM; Kd (HBHA110–199 [1]; residue A166, Repeat II, read-out: Dissociation constant from NMR cross-peak movement): 3200 nM; Kd (HBHA110–199 [1]; residue A169, Repeat II, read-out: Dissociation constant from NMR cross-peak movement): 5500 nM; Kd (HBHA110–199 [1]; residue A170, Repeat II, read-out: Dissociation constant from NMR cross-peak movement): 2500 nM; Kd (HBHA110–199 [1]; residue A172, Repeat III, read-out: Dissociation constant from NMR cross-peak movement): 2200 nM; Kd (HBHA110–199 [1]; residue A175, Repeat III, read-out: Dissociation constant from NMR cross-peak movement): 2300 nM; Kd (HBHA110–199 [1]; residue A176, Repeat III, read-out: Dissociation constant from NMR cross-peak movement): 1400 nM; Kd (HBHA110–199 [1]; residue A178, Repeat IV, read-out: Dissociation constant from NMR cross-peak movement): 800 nM; Kd (HBHA110–199 [1]; residue A181, Repeat IV, read-out: Dissociation constant from NMR cross-peak movement): 1400 nM; Kd (HBHA110–199 [1]; residue A182, Repeat IV, read-out: Dissociation constant from NMR cross-peak movement): 1000 nM; Kd (HBHA110–199 [1]; residue A183, Repeat IV, read-out: Dissociation constant from NMR cross-peak movement): 700 nM; Kd (HBHA110–199 [1]; residue A186, Repeat IV, read-out: Dissociation constant from NMR cross-peak movement): 800 nM; Kd (HBHA110–199 [1]; residue A188, Repeat V, read-out: Dissociation constant from NMR cross-peak movement): 800 nM; Kd (HBHA110–199 [1]; residue A191, Repeat V, read-out: Dissociation constant from NMR cross-peak movement): 1500 nM; Kd (HBHA110–199 [1]; residue A192, Repeat V, read-out: Dissociation constant from NMR cross-peak movement): 2100 nM; Kd (HBHA110–199 [1]; residue A193, Repeat V, read-out: Dissociation constant from NMR cross-peak movement): 1000 nM; Kd (HBHA110–199 [1]; residue K161, Repeat I, read-out: Dissociation constant from NMR cross-peak movement): 12900 nM; Kd (HBHA110–199 [1]; residue K162, Repeat I, read-out: Dissociation constant from NMR cross-peak movement): 6800 nM; Kd (HBHA110–199 [1]; residue K167, Repeat II, read-out: Dissociation constant from NMR cross-peak movement): 1700 nM; Kd (HBHA110–199 [1]; residue K168, Repeat II, read-out: Dissociation constant from NMR cross-peak movement): 3200 nM; Kd (HBHA110–199 [1]; residue K173, Repeat III, read-out: Dissociation constant from NMR cross-peak movement): 1700 nM; Kd (HBHA110–199 [1]; residue K174, Repeat III, read-out: Dissociation constant from NMR cross-peak movement): 6700 nM; Kd (HBHA110–199 [1]; residue K179, Repeat IV, read-out: Dissociation constant from NMR cross-peak movement): 1300 nM; Kd (HBHA110–199 [1]; residue K190, Repeat V, read-out: Dissociation constant from NMR cross-peak movement): 1200 nM; Kd (HBHA110–199 [1]; residue K194, Repeat V, read-out: Dissociation constant from NMR cross-peak movement): 1100 nM; Kd (HBHA110–199 [1]; residue K195, Repeat V, read-out: Dissociation constant from NMR cross-peak movement): 2900 nM; Kd (HBHA110–199 [1]; residue V196, Repeat V, read-out: Dissociation constant from NMR cross-peak movement): 2300 nM; random coil of full-length HBHA (full-length HBHA; HBHA:compound 1:0.5): 52.4%; β-sheet of full-length HBHA (full-length HBHA; HBHA:compound 1:0.5): 24.0%; α-helix of full-length HBHA (full-length HBHA; HBHA:compound 1:0.5, far-UV CD 195–260 nm): 23.6%; random coil of full-length HBHA (full-length HBHA; HBHA:compound 1:1): 51.9%; α-helix of full-length HBHA (full-length HBHA; HBHA:compound 1:1): 24.9%; β-sheet of full-length HBHA (full-length HBHA; HBHA:compound 1:1): 23.2%; random coil of full-length HBHA (full-length HBHA; HBHA:compound 1:1.5): 52.2%; α-helix of full-length HBHA (full-length HBHA; HBHA:compound 1:1.5): 24.4%; β-sheet of full-length HBHA (full-length HBHA; HBHA:compound 1:1.5): 23.4%; increase in α-helical content of bound HBHA (full-length HBHA; estimated by Dichroweb, roughly 16 residues): approximately 8%; changes in CD spectra of HBHA110–199 (HBHA110–199 [2]): no noteworthy changes; n (sugar-to-protein binding ratio) (HBHA110–199 [3]; 25 °C, Tris buffer pH 7.6): 0.27 ± 0.01; ΔG (HBHA110–199 [3]; 25 °C, Tris buffer pH 7.6): –7.82 ± 0.02 kcal/mol; ΔH (HBHA110–199 [3]; 25 °C, Tris buffer pH 7.6): 16.00 ± 0.00 kcal/mol; –TΔS (HBHA110–199 [3]; 25 °C, Tris buffer pH 7.6): –23.85 ± 0.08 kcal/mol; Kd (HBHA110–199 [3]; Tris buffer pH 7.6, 25 °C, two trials, average ± standard deviation, read-out: dissociation constant, KD): 1870 ± 60 nM
